From ChEMBL document CHEMBL3124938, “Synthesis and biological evaluation of positron emission tomography radiotracers targeting serotonin 4 receptors in brain: [18F]MNI-698 and [18F]MNI-699” (Bioorg Med Chem Lett, 2013)
Blank lines part the entries; values can stand above or below the molecule they belong to.

How the values were obtained:
[1] = target: T1, 5-hydroxytryptamine receptor 4 (Rattus norvegicus, UniProt Q62758); assay: Binding affinity to 5HT4 receptor in rat striatal membranes; format: cell membranes, Striatum, Membrane
[2] = target: T1, 5-hydroxytryptamine receptor 4; assay: Displacement of [3H]GR113808 from 5HT4 receptor in Sprague-Dawley rat striatal membranes after 1 hr by […]; set-up: species or system Striatum, Membrane
[3] = tested on: Striatum; assay: Drug uptake in rhesus monkey striatum at 166.6 +/- 11.9 MBq, iv by PET analysis; format: ADME, organism-based, Macaca mulatta; settings: in vivo
[4] = Drug uptake in rhesus monkey parietal cortex at 166.6 +/- 11.9 MBq, iv by PET analysis; format: ADME, organism-based, Macaca mulatta; settings: in vivo
[5] = Octanol-buffer partition coefficient, log D of the compound at pH 7.4 by shake flask method; format: physicochemical
[6] = Standardized uptake value ratio in rhesus monkey substantia nigra at 166.6 +/- 11.9 MBq, iv by PET analysis; format: ADME, organism-based, Macaca mulatta; settings: in vivo
[7] = Drug uptake in rhesus monkey occipital cortex at 166.6 +/- 11.9 MBq, iv by PET analysis; format: ADME, organism-based, Macaca mulatta; settings: in vivo
[8] = Drug uptake in rhesus monkey caudate at 166.6 +/- 11.9 MBq, iv by PET analysis; format: ADME, organism-based, Macaca mulatta; settings: in vivo
[9] = Drug uptake in rhesus monkey temporal cortex at 166.6 +/- 11.9 MBq, iv by PET analysis; format: ADME, organism-based, Macaca mulatta; settings: in vivo
[10] = Standardized uptake value ratio in rhesus monkey putamen at 166.6 +/- 11.9 MBq, iv by PET analysis; format: ADME, organism-based, Macaca mulatta; settings: in vivo
[11] = tested on: Brain; assay: Drug uptake in rhesus monkey brain at 166.6 +/- 11.9 MBq, iv after 20 mins by PET analysis; format: ADME, organism-based, Macaca mulatta; settings: in vivo
[12] = Drug uptake in rhesus monkey cerebellum at 166.6 +/- 11.9 MBq, iv by PET analysis; format: ADME, organism-based, Macaca mulatta; settings: in vivo
[13] = Drug uptake in rhesus monkey substantia nigra at 166.6 +/- 11.9 MBq, iv by PET analysis; format: ADME, organism-based, Macaca mulatta; settings: in vivo
[14] = Drug uptake in rhesus monkey globus pallidus at 166.6 +/- 11.9 MBq, iv by PET analysis; format: ADME, organism-based, Macaca mulatta; settings: in vivo
[15] = Standardized uptake value ratio in rhesus monkey caudate at 166.6 +/- 11.9 MBq, iv by PET analysis; format: ADME, organism-based, Macaca mulatta; settings: in vivo
[16] = tested on: Hippocampus; assay: Standardized uptake value ratio in rhesus monkey hippocampus at 166.6 +/- 11.9 MBq, iv by PET analysis; format: ADME, organism-based, Macaca mulatta; settings: in vivo
[17] = tested on: Hippocampus; assay: Drug uptake in rhesus monkey hippocampus at 166.6 +/- 11.9 MBq, iv by PET analysis; format: ADME, organism-based, Macaca mulatta; settings: in vivo
[18] = tested on: Striatum; assay: Standardized uptake value ratio in rhesus monkey striatum at 166.6 +/- 11.9 MBq, iv by PET analysis; format: ADME, organism-based, Macaca mulatta; settings: in vivo
[19] = Drug uptake in rhesus monkey putamen at 166.6 +/- 11.9 MBq, iv by PET analysis; format: ADME, organism-based, Macaca mulatta; settings: in vivo
[20] = Drug uptake in rhesus monkey frontal cortex at 166.6 +/- 11.9 MBq, iv by PET analysis; format: ADME, organism-based, Macaca mulatta; settings: in vivo
[21] = Standardized uptake value ratio in rhesus monkey globus pallidus at 166.6 +/- 11.9 MBq, iv by PET analysis; format: ADME, organism-based, Macaca mulatta; settings: in vivo
[22] = Drug uptake in rhesus monkey thalamus at 166.6 +/- 11.9 MBq, iv by PET analysis; format: ADME, organism-based, Macaca mulatta; settings: in vivo
[23] = target: Serotonin 4 (5-HT4) receptor (Sus scrofa, UniProt Q6Q253); assay: Binding affinity to 5HT4 receptor in pig striatal membranes; format: cell membranes, Striatum, Membrane
[24] = target: 5-hydroxytryptamine receptor 4 (Cavia porcellus, UniProt O70528); assay: Binding affinity to 5HT4 receptor in guinea pig distal colon
[25] = tested on: Rhesus monkey; assay: Ex vivo receptor occupancy of 5HT4 receptor in rhesus monkey at 0.5 mg/kg; format: functional, Macaca mulatta

T1 sequence (Q62758 whole entry): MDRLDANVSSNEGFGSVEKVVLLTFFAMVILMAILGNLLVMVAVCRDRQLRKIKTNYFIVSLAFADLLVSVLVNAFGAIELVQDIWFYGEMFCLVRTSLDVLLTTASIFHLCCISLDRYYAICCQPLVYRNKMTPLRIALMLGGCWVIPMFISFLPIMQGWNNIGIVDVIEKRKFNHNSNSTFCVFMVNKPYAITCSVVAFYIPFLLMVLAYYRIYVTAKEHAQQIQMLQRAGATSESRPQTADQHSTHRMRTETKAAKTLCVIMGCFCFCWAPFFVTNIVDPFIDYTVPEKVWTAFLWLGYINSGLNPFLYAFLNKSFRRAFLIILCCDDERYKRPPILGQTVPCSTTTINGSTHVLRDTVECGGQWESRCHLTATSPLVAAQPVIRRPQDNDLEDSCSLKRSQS
Serotonin 4 (5-HT4) receptor, sequence (Q6Q253 whole entry): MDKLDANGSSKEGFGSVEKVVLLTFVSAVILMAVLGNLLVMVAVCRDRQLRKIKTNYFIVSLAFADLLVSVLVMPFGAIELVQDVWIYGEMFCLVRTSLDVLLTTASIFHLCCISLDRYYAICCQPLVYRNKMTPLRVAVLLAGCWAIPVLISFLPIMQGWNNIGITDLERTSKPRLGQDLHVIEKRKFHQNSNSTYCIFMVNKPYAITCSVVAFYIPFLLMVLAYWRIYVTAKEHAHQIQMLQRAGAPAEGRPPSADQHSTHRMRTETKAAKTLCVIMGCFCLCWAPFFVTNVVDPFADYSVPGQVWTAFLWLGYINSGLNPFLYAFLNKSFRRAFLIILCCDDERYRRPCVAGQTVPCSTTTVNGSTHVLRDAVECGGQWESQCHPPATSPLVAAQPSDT
5-hydroxytryptamine receptor 4 (Cavia porcellus, UniProt O70528), sequence (O70528 whole entry): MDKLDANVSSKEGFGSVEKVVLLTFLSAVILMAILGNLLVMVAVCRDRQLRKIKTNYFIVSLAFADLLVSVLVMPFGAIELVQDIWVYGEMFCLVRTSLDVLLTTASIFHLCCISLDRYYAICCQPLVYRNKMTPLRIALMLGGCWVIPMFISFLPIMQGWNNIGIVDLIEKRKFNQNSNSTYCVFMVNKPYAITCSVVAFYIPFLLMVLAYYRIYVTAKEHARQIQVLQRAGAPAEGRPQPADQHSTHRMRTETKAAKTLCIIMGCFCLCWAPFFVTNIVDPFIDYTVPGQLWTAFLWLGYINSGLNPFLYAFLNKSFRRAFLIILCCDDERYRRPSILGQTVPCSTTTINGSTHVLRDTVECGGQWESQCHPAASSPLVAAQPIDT

Drug uptake [3]: Active
Drug uptake [4]: Active
logD [5]: 1.4
SUV [6]: 3
Drug uptake [7]: Active
Drug uptake [8]: Active
Drug uptake [9]: Active
SUV [10]: 3
Drug uptake [11]: 5.6 %ID
Drug uptake [12]: Active
Drug uptake [13]: Active
Drug uptake [14]: Active
SUV [15]: 3
SUV [16]: 3
Drug uptake [17]: Active
SUV [18]: 3
Drug uptake [19]: Active
Drug uptake [20]: Active
SUV [21]: 3
Drug uptake [22]: Active
Compound: Nc1c(Cl)cc(C(=O)OCC2CCN(CCC[18F])CC2)c2c1OCCO2

Kd [1]: 300 pM
Kd [23]: 80 pM
Compound: CN1CCC(COC(=O)c2cc(Cl)c(N)c3c2OCCO3)CC1

More lines, now with the values behind:

Compound: CCCCN1CCC(COC(=O)c2cc(I)c(N)c3c2OCCO3)CC1
Kd [1]: 300 pM

Compound: Nc1c(Cl)cc(C(=O)OCC2CCN(CCCF)CC2)c2c1OCCO2
Ki [2]: 70 pM

Compound: Nc1c(Cl)cc(C(=O)OCC2CCN(CCF)CC2)c2c1OCCO2
Ki [2]: 200 pM

Compound: Nc1c(Cl)cc(C(=O)OCC2CCN(CC[18F])CC2)c2c1OCCO2
Drug uptake [3]: Active
Drug uptake [4]: Active
logD [5]: 1.8
SUV [6]: 3
Drug uptake [7]: Active
Drug uptake [8]: Active
Drug uptake [9]: Active
SUV [10]: 3
Drug uptake [11]: 6.6 %ID
Drug uptake [12]: Active
Drug uptake [13]: Active
Drug uptake [14]: Active
SUV [15]: 3
SUV [16]: 3
Drug uptake [17]: Active
SUV [18]: 3
Drug uptake [19]: Active
Drug uptake [20]: Active
SUV [21]: 3
Drug uptake [22]: Active

Compound: CCCCN1CCC(COC(=O)c2cc(Cl)c(N)c3c2OCCO3)CC1
Kd [24]: 20 pM
Activity [25]: 93%
